Converted amounts (≈) assume the structure as drawn.
Tests used:
Format in all cases: cell-based
A. baumannii MP-15 = assay: Broth dilution MIC determination (CLSI), A. baumannii MP-15; details: Acinetobacter baumannii, MP15; strain MP-15, broth dilution; read-out: MIC A. baumanii MP-15
E. coli MP-4 = assay: Broth dilution MIC determination (CLSI), E. coli MP-4; details: Escherichia coli, MP4; strain MP-4, broth dilution; read-out: MIC E. coli MP-4
S. aureus MP-12 = assay: Broth dilution MIC determination (CLSI), S. aureus MP-12; details: Staphylococcus aureus, MP12; strain MP-12, broth dilution
P. aeruginosa MP-3 = assay: Broth dilution MIC determination (CLSI), P. aeruginosa MP-3; details: Pseudomonas aeruginosa, MP3; strain MP-3, broth dilution
K. pneumoniae MP-546 = assay: Broth dilution MIC determination (CLSI), K. pneumoniae MP-546; details: Klebsiella pneumoniae, MP546; strain MP-546, broth dilution
K. pneumoniae MP-648 = assay: Broth dilution MIC determination (CLSI), K. pneumoniae MP-648; details: Klebsiella pneumoniae, MP648; strain MP-648, broth dilution

| MIC (A. baumannii MP-15) [µg/mL] | MIC (E. coli MP-4) [µg/mL] | MIC (S. aureus MP-12) [µg/mL] | MIC (P. aeruginosa MP-3) [µg/mL] | MIC (K. pneumoniae MP-546) [µg/mL] | MIC (K. pneumoniae MP-648) [µg/mL] | Compound |
| --- | --- | --- | --- | --- | --- | --- |
| > 32 | < 4 | > 32 | > 32 | 4 to 32 (≈ 6.27 to 50.2 µM) | 4 to 32 (≈ 6.27 to 50.2 µM) | CO[C@]1(C)C[C@@H](C)CN(C)[C@H]([C@H]2C[C@@H](N(C)CC3CC3)C2)COC(=O)C(C)(C)C(=O)[C@H](C)[C@H]1O[C@@H]1O[C@H](C)C[C@H](N(C)C)[C@H]1O [Compound 18, (3R,6R,8R,9R,10R)-3-((1s,3S)-3-((cyclopropylmethyl)(methyl)amino)cyclobutyl)-9-(((2S,3R,4S,6R)-4-(dimethylamino)-3-hydroxy-6-methyltetrahydro-2H-pyran-2-yl)oxy)-8-methoxy-4,6,8,10,12,12-hexamethyl-1-oxa-4-azacyclotridecane-11,13-dione] |
| > 32 | < 4 | 4 to 32 (≈ 6.27 to 50.2 µM) | > 32 | < 4 | < 4 | CO[C@]1(C)C[C@@H](C)CN(C)[C@H]([C@H]2C[C@H](N(C)CC3CC3)C2)COC(=O)C(C)(C)C(=O)[C@H](C)[C@H]1O[C@@H]1O[C@H](C)C[C@H](N(C)C)[C@H]1O [Compound 24, (3R,6R,8R,9R,10R)-3-((1r,3R)-3-((cyclopropylmethyl)(methyl)amino)cyclobutyl)-9-(((2S,3R,4S,6R)-4-(dimethylamino)-3-hydroxy-6-methyltetrahydro-2H-pyran-2-yl)oxy)-8-methoxy-4,6,8,10,12,12-hexamethyl-1-oxa-4-azacyclotridecane-11,13-dione] |
| > 32 | < 4 | 4 to 32 (≈ 5.43 to 43.4 µM) | > 32 | < 4 | 4 to 32 (≈ 5.43 to 43.4 µM) | CO[C@]1(C)C[C@@H](C)CN(C)[C@H](C2CN(C(=O)CC(C)(C)CN(C)CC3CC3)C2)COC(=O)C(C)(C)C(=O)[C@H](C)[C@H]1O[C@@H]1O[C@H](C)C[C@H](N(C)C)[C@H]1O [Compound 25, (3R,6R,8R,9R,10R)-3-(1-(4-((cyclopropylmethyl)(methyl)amino)-3,3-dimethylbutanoyl)azetidin-3-yl)-9-(((2S,3R,4S,6R)-4-(dimethylamino)-3-hydroxy-6-methyltetrahydro-2H-pyran-2-yl)oxy)-8-methoxy-4,6,8,10,12,12-hexamethyl-1-oxa-4-azacyclotridecane-11,13-dione] |
| > 32 | < 4 | 4 to 32 (≈ 6.69 to 53.5 µM) | > 32 | < 4 | < 4 | CO[C@]1(C)C[C@@H](C)CN(C)[C@H]([C@H]2C[C@H](N(C)C)C2)COC(=O)C(C)(C)C(=O)[C@H](C)[C@H]1O[C@@H]1O[C@H](C)C[C@H](N(C)C)[C@H]1O [Compound 30, (3R,6R,8R,9R,10R)-9-(((2S,3R,4S,6R)-4-(dimethylamino)-3-hydroxy-6-methyltetrahydro-2H-pyran-2-yl)oxy)-3-((1r,3R)-3-(dimethylamino)cyclobutyl)-8-methoxy-4,6,8,10,12,12-hexamethyl-1-oxa-4-azacyclotridecane-11,13-dione] |
| > 32 | < 4 | > 32 | > 32 | < 4 | 4 to 32 (≈ 5.99 to 47.9 µM) | CO[C@]1(C)C[C@@H](C)CN(C)[C@H]([C@H]2C[C@@H](N(C)CC3CCCO3)C2)COC(=O)C(C)(C)C(=O)[C@H](C)[C@H]1O[C@@H]1O[C@H](C)C[C@H](N(C)C)[C@H]1O (stereo partly drawn) [Compound 31, (3R,6R,8R,9R,10R)-9-(((2S,3R,4S,6R)-4-(dimethylamino)-3-hydroxy-6-methyltetrahydro-2H-pyran-2-yl)oxy)-8-methoxy-4,6,8,10,12,12-hexamethyl-3-((1s,3S)-3-(methyl((tetrahydrofuran-2-yl)methyl)amino)cyclobutyl)-1-oxa-4-azacyclotridecane-11,13-dione] |

More lines, now with the values behind:

| Compound | MIC (A. baumannii MP-15) [µg/mL] | MIC (E. coli MP-4) [µg/mL] | MIC (S. aureus MP-12) [µg/mL] | MIC (P. aeruginosa MP-3) [µg/mL] | MIC (K. pneumoniae MP-546) [µg/mL] | MIC (K. pneumoniae MP-648) [µg/mL] |
| --- | --- | --- | --- | --- | --- | --- |
| CO[C@]1(C)C[C@@H](C)CN(C)[C@@H](C2CCN(C(C)[C@H]3COC(C)(C)O3)CC2)COC(=O)C(C)(C)C(=O)[C@H](C)[C@H]1O[C@@H]1O[C@H](C)C[C@H](N(C)C)[C@H]1O (mixture of isomers) [Compound 172, (3S,6R,8R,9R,10R)-3-(1-(1-((S)-2,2-dimethyl-1,3-dioxolan-4-yl)ethyl)piperidin-4-yl)-9-(((2S,3R,4S,6R)-4-(dimethylamino)-3-hydroxy-6-methyltetrahydro-2H-pyran-2-yl)oxy)-8-methoxy-4,6,8,10,12,12-hexamethyl-1-oxa-4-azacyclotridecane-11,13-dione] | > 32 | < 4 | 4 to 32 (≈ 5.62 to 44.9 µM) | > 32 | < 4 | < 4 |
| CO[C@]1(C)C[C@@H](C)CN(C)[C@H](C2CN(Cc3ccn(C)n3)C2)COC(=O)C(C)(C)C(=O)[C@H](C)[C@H]1O[C@@H]1O[C@H](C)C[C@H](N(C)C)[C@H]1O [Compound 16, (3R,6R,8R,9R,10R)-9-(((2S,3R,4S,6R)-4-(dimethylamino)-3-hydroxy-6-methyltetrahydro-2H-pyran-2-yl)oxy)-8-methoxy-4,6,8,10,12,12-hexamethyl-3-(1-((1-methyl-1H-pyrazol-3-yl)methyl)azetidin-3-yl)-1-oxa-4-azacyclotridecane-11,13-dione] | > 32 | < 4 | 4 to 32 (≈ 6.16 to 49.2 µM) | > 32 | 4 to 32 (≈ 6.16 to 49.2 µM) | 4 to 32 (≈ 6.16 to 49.2 µM) |
| CO[C@]1(C)C[C@@H](C)CN(C)[C@H](C2CN(C(=O)[C@@H]3CCNC3)C2)COC(=O)C(C)(C)C(=O)[C@H](C)[C@H]1O[C@@H]1O[C@H](C)C[C@H](N(C)C)[C@H]1O [Compound 22, (3R,6R,8R,9R,10R)-9-(((2S,3R,4S,6R)-4-(dimethylamino)-3-hydroxy-6-methyltetrahydro-2H-pyran-2-yl)oxy)-8-methoxy-4,6,8,10,12,12-hexamethyl-3-(1-((R)-pyrrolidine-3-carbonyl)azetidin-3-yl)-1-oxa-4-azacyclotridecane-11,13-dione] | > 32 | 4 to 32 (≈ 6.13 to 49 µM) | 4 to 32 (≈ 6.13 to 49 µM) | > 32 | > 32 | > 32 |
| CO[C@]1(C)C[C@@H](C)CN(C)[C@@H](C2CCN(C[C@H](CO)N(C)C)CC2)CO[C@@H](O)C(C)(C)C(=O)[C@H](C)[C@H]1O[C@@H]1O[C@H](C)C[C@H](N(C)C)[C@H]1O [Compound 200] | > 32 | 4 to 32 (≈ 5.82 to 46.6 µM) | 4 to 32 (≈ 5.82 to 46.6 µM) | > 32 | – | > 32 |
| CO[C@]1(C)C[C@@H](C)CN(C)[C@@H](C2CCN(C[C@@H]3COC(=O)N3)CC2)CO[C@@H](O)C(C)(C)C(=O)[C@H](C)[C@H]1O[C@@H]1O[C@H](C)C[C@H](N(C)C)[C@H]1O [Compound 201] | > 32 | 4 to 32 (≈ 5.84 to 46.7 µM) | > 32 | > 32 | – | > 32 |
| CO[C@]1(C)C[C@@H](C)CN(C)[C@@H](C2CCN(C[C@@H]3COC(=O)N3C)CC2)CO[C@@H](O)C(C)(C)C(=O)[C@H](C)[C@H]1O[C@@H]1O[C@H](C)C[C@H](N(C)C)[C@H]1O [Compound 202] | > 32 | 4 to 32 (≈ 5.72 to 45.8 µM) | > 32 | > 32 | – | > 32 |
| CO[C@]1(C)C[C@@H](C)CN(C)[C@H](C2CN(CC(=O)O)C2)COC(=O)C(C)(C)C(=O)[C@H](C)[C@H]1O[C@@H]1O[C@H](C)C[C@H](N(C)C)[C@H]1O [Compound 203] | > 32 | 4 to 32 (≈ 6.52 to 52.1 µM) | > 32 | > 32 | – | > 32 |

From US20220177508A1, “C10-Cyclic Substituted 13-Membered Macrolides and Uses Thereof” (Zikani Therapeutics, Inc., priority 2018, published 2022)
